Test systems include UO-31 renal; TK-10 renal; SK-OV-3 ovarian; CCRF-CEM leukemia; SN12C renal; EKVX NSCLC; HOP-92 NSCLC; MALME-3M melanoma; T-47D breast; HS 578T breast.
What all share (assay): NCI tumour cell line growth inhibition, 48 h

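96-well plates; 48 h exposure; 5 concentrations. Endpoints by linear interpolation between flanking doses. Not reached: highest tested concentration assigned. GI50 = concentration required for 50% inhibition of growth. TGI: concentration producing complete growth inhibition.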

As to `CCOc1ccc(N=Cc2ccc3cc(C)ccc3n2)cc1`, the TGI with UO-31 renal is > 100 µM; with TK-10 renal, > 100 µM; in the assay on SK-OV-3 ovarian it was > 100 µM; with CCRF-CEM leukemia, 60.6 µM; in the assay on SN12C renal, > 100 µM; in the assay on EKVX NSCLC it was > 100 µM. Further, the TGI with HOP-92 NSCLC and with MALME-3M melanoma was > 100 µM each time.

On to `C=C1C(C2(C)C(OC(C)=O)CC(=O)OC(C)(COC(C)=O)C2CC(=O)OC)C(OC=O)C(OC(=O)C(O)C(C)CC)C2(C)C(c3ccoc3)CC(=O)C12O` (stereo not given), for which the TGI in the assay on T-47D breast is > 100 µM; in the assay on UO-31 renal it was 18.1 µM; in the assay on TK-10 renal, > 100 µM; with SK-OV-3 ovarian it was > 100 µM; in the assay with SN12C renal, > 100 µM; in the assay with EKVX NSCLC, > 100 µM. In addition, the TGI in the assay with HOP-92 NSCLC and in the assay on HS 578T breast was > 100 µM each time.

Turning to `CC(=O)CC(N)=O`, the TGI in the assay with UO-31 renal, in the assay with TK-10 renal, in the assay with SK-OV-3 ovarian, with CCRF-CEM leukemia, in the assay on SN12C renal and with EKVX NSCLC was > 100 µM throughout. Besides, the TGI with HOP-92 NSCLC and in the assay on MALME-3M melanoma was > 100 µM in each case.

As to `O=C(O)Cc1cc(=O)[nH]c2c1/C(=N/O)CCC2`, the TGI in the assay on UO-31 renal, with TK-10 renal, with SK-OV-3 ovarian, in the assay with CCRF-CEM leukemia, in the assay on SN12C renal and in the assay with EKVX NSCLC was > 100 µM each time. In addition, the TGI in the assay on HOP-92 NSCLC and with MALME-3M melanoma was > 100 µM throughout.

As to `CCOC(=O)Cc1ccc2c(c1O)C(=O)c1c(ccc(CC(=O)OCC)c1O)C2=O`, the TGI in the assay with UO-31 renal, in the assay on TK-10 renal, in the assay on SK-OV-3 ovarian, in the assay on CCRF-CEM leukemia, with SN12C renal and in the assay with EKVX NSCLC was > 100 µM each time. The TGI in the assay on HOP-92 NSCLC and with MALME-3M melanoma was > 100 µM throughout.

Take `CC(=Nc1ccccc1)C1=C(O)C(Cc2ccc(O)cc2)NC1=O` (stereo not given): the GI50 with UO-31 renal is 0.321 µM; in the assay on TK-10 renal it was 0.252 µM; in the assay on SK-OV-3 ovarian, 0.162 µM; in the assay with CCRF-CEM leukemia, 0.131 µM; in the assay with SN12C renal it was 0.991 µM; in the assay with EKVX NSCLC, 0.16 µM. The GI50 is 0.082 µM with HOP-92 NSCLC, 0.0771 µM in the assay on HS 578T breast and 0.0477 µM in the assay with MALME-3M melanoma. Also, the TGI in the assay on UO-31 renal was > 100 µM; in the assay with TK-10 renal, > 100 µM; in the assay with SK-OV-3 ovarian it was > 50 µM; in the assay on CCRF-CEM leukemia, > 100 µM; in the assay on SN12C renal, > 100 µM; in the assay with EKVX NSCLC, > 100 µM. Moreover, the TGI in the assay with HOP-92 NSCLC and in the assay with MALME-3M melanoma was > 100 µM in each case.

Turning to `CC1=C[C@]2(O)C(=O)[C@H](C)C[C@H]3[C@@H](CC[C@@](C)(O)/C=C\2C1=O)C3(C)C`, the TGI is > 100 µM in the assay on UO-31 renal; > 78.7 µM with TK-10 renal; 98 µM in the assay on SK-OV-3 ovarian; > 100 µM in the assay on CCRF-CEM leukemia; 41.5 µM with SN12C renal; > 100 µM in the assay with EKVX NSCLC. Moreover, the TGI in the assay with HOP-92 NSCLC was determined as 48.2 µM; with MALME-3M melanoma, 54.4 µM.

Regarding `O=C1O/C(=C\c2ccccc2)N(c2ccccc2)C1=O`, the TGI in the assay with T-47D breast, with UO-31 renal, in the assay on TK-10 renal, in the assay on SK-OV-3 ovarian, with CCRF-CEM leukemia and in the assay with SN12C renal was > 100 µM throughout. For the same compound, the TGI in the assay with EKVX NSCLC, with HOP-92 NSCLC and with HS 578T breast was > 100 µM in each case.

On to `O=C1C=CC(=O)C12CCc1ccccc12`, for which the TGI is > 100 µM with UO-31 renal; > 100 µM with TK-10 renal; > 100 µM in the assay on SK-OV-3 ovarian; > 95.2 µM in the assay with CCRF-CEM leukemia; > 100 µM with SN12C renal; > 100 µM in the assay with EKVX NSCLC. Moreover, the TGI with HOP-92 NSCLC and with MALME-3M melanoma was > 100 µM each time.

Regarding `CC1=C(C(=O)Nc2ccc(Cl)c(Cl)c2)C(c2cccc(Cl)c2)NC(=O)N1` (stereo not given), the GI50 was 19.2 µM in the assay with T-47D breast; 8.2 µM in the assay with UO-31 renal; 0.22 µM in the assay with TK-10 renal; 10.6 µM in the assay with SK-OV-3 ovarian; 8.53 µM in the assay with SN12C renal; 7.84 µM in the assay on EKVX NSCLC. The GI50 was 18.3 µM in the assay with HOP-92 NSCLC and 9.68 µM in the assay with HS 578T breast. Also, the TGI in the assay with T-47D breast is > 50 µM; in the assay on UO-31 renal it was 15.9 µM; in the assay with TK-10 renal, 0.346 µM; with SK-OV-3 ovarian, 20.7 µM; in the assay with SN12C renal, 16.8 µM; in the assay on EKVX NSCLC it was 16.2 µM. The TGI in the assay on HOP-92 NSCLC was > 28.7 µM; in the assay with HS 578T breast it was 22.6 µM.

Take `O=C(O)c1ccc(Oc2nccc(-c3c(-c4ccc(F)cc4)ncn3C3CCNCC3)n2)cc1`: the GI50 with T-47D breast, in the assay on UO-31 renal, with TK-10 renal, in the assay with SK-OV-3 ovarian, in the assay with SN12C renal and in the assay on EKVX NSCLC was > 25 µM throughout. For the same compound, the GI50 in the assay with HS 578T breast and with MALME-3M melanoma was > 25 µM in each case. The TGI in the assay on T-47D breast, in the assay with UO-31 renal, with TK-10 renal, in the assay with SK-OV-3 ovarian, with SN12C renal and in the assay on EKVX NSCLC was > 25 µM throughout. Also, the TGI in the assay with HS 578T breast and in the assay with MALME-3M melanoma was > 25 µM each time.

`O=C1NC(=O)C(c2ccccc2Cl)=C1Nc1cc(Cl)c(O)c(Cl)c1`: the GI50 in the assay with T-47D breast was > 15.2 µM; in the assay on UO-31 renal it was > 23.4 µM; in the assay on TK-10 renal, > 25 µM; in the assay on SK-OV-3 ovarian it was 16.3 µM; in the assay on SN12C renal, > 21.5 µM; with EKVX NSCLC, > 25 µM. Besides, the GI50 is 10.9 µM in the assay with HS 578T breast and 17 µM in the assay with MALME-3M melanoma. In addition, the TGI in the assay on T-47D breast, in the assay with UO-31 renal, in the assay on TK-10 renal, in the assay with SK-OV-3 ovarian, in the assay with SN12C renal and in the assay on EKVX NSCLC was > 25 µM in each case. Also, the TGI in the assay with HS 578T breast and with MALME-3M melanoma was > 25 µM throughout.

The values are drawn from PubChem BioAssay (NCI).
